One assay concerns the target pSTAT3 (Homo sapiens, UniProt P40763). Briefly: MSD-pSTAT-PBMC Assay (pSTAT3, IL-6 stimulated). It counts as cell-based. Conditions: compound 3 hrs, then 10 ng/mL IL-6 10 min, pY705-STAT3, read-out: pSTAT3 IC50. The text has this: Cryopreserved Peripheral Blood Mononuclear Cells (PBMC) are from AllCells. Recombinant Human IL-4 and IL-6 are from Peprotech. Mouse monoclonal anti-STAT3 antibody, rabbit monoclonal anti-pY705-STAT3 antibody, rabbit monoclonal Anti-pY641-STAT6 antibody, and lysis buffer are from Cell Signaling Technology (CST). Mouse monoclonal anti-STAT6 antibody is from BioLegend. Assay plates, blocker, and anti-rabbit secondary antibody are from Meso Scale Discovery (MSD).
Cryopreserved PBMCs were thawed out and allowed to recover overnight in IMDM+10% heat-inactivated FBS prior to plating 50,000 (STAT3) or 25,000 (STAT6) cells per well in 96-well U-bottom tissue culture plates. Cells were treated with compound for 3 hrs, then stimulated with 10 ng/mL IL-6 (STAT3) or 1 ng/mL IL-4 (STAT6) for 10 min. Cells were then spun down and washed with ice-cold PBS prior to lysing the cell pellet with 1× lysis buffer (CST) with 1× HALT protease and phosphatase inhibitor cocktail (Thermo). Lysates were transferred to and incubated overnight at 4° C. with shaking in QuickPlex 96-well high bind assay plates (MSD) pre-coated overnight with 30 μL per well of […] mouse monoclonal anti-STAT3 antibody (STAT3) or 2 μg/mL mouse monoclonal anti-STAT6 antibody (STAT6) in 1× PBS, and pre-blocked for 1 hour with 3% Blocker-A (MSD). Captured protein in the assay plates were then washed and probed with 25 μL per well of […] rabbit monoclonal anti-pY705-STAT3 antibody (STAT3) or […] rabbit monoclonal Anti-pY641-STAT6 antibody (STAT6) in 1% Blocker-A for 1 hour at room temperature with shaking, then washed and probed with 25 ul per well of 1 ug/ml Sulfo-TAG Labeled Goat Anti-Rabbit Antibody (MSD) in 1% Blocker-A for 1 hour at room temperature with shaking. Assay plates were then washed and 150 μL of 1× Read Buffer-T (MSD) was added to each well prior to reading on an SQ120 MSD Plate Reader. Assay signal from each sample was subtracted by the signal from unstimulated control wells and normalized to DMSO control wells. IC50 values were calculated using Graph Pad Prism Dose-Response Nonlinear Regression with variable slope. For both pSTAT3 and pSTAT6 A=≤100 nM; B=>100-1000 nM; C=>1000-3000 nM; and D=>3 μM.
Sequence of pSTAT3 (P40763 whole entry): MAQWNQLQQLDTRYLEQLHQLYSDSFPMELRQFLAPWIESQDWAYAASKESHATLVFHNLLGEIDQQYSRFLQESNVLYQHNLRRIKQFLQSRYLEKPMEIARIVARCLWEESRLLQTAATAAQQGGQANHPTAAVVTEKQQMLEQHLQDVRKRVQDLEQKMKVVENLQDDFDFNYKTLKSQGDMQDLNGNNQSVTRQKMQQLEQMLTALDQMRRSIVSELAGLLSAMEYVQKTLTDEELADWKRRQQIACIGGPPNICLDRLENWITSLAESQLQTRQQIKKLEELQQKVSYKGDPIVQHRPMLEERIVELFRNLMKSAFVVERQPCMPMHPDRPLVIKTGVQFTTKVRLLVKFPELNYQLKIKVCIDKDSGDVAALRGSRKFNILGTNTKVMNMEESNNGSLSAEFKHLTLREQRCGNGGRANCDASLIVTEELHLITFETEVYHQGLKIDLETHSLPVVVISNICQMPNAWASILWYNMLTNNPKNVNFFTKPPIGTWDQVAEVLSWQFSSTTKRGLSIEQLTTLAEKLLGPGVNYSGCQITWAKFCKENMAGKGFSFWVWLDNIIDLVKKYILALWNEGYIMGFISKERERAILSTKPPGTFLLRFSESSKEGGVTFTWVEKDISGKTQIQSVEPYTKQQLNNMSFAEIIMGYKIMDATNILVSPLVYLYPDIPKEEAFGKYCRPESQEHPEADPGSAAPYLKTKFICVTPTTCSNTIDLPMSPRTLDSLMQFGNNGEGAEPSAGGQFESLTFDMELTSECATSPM
With `CCCC(=O)SCCOP(=O)(OCCSC(=O)CCC)C(F)(F)c1ccc2sc(C(=O)N[C@H]3CCC[C@H]4CC[C@@H](C(=O)N5CC(c6cnccc6OCCOCCOc6ccc(C7CCC(=O)NC7=O)cc6)C5)N4C3=O)cc2c1` (stereo partly drawn) [Compound 12, S,S((((2-(((3S,6S,9aS)-3-(3-(4-(2-(2-(4-(2,6-dioxopiperidin-3-yl)phenoxy)ethoxy)ethoxy)pyridin-3-yl)azetidine-1-carbonyl)-5-oxooctahydro-1H-pyrrolo[1,2-a]azepin-6-yl)carbamoyl)benzo[b]thiophen-5-yl)difluoromethyl)phosphoryl)bis(oxy))bis(ethane-2,1-diyl)) dibutanethioate], the IC50 is less than 100 nM.

For the compound `CCCC(=O)SCCOP(=O)(OCCSC(=O)CCC)C(F)(F)c1ccc2sc(C(=O)N[C@H]3CCC[C@H]4CC[C@@H](C(=O)N5CC(c6cnccc6OCCOc6ccc(C7CCC(=O)NC7=O)cc6)C5)N4C3=O)cc2c1` (stereo partly drawn) [Compound 10, S,S(((((2-(((3S,6S,9aS)-3-(3-(4-(2-(4-(2,6-dioxopiperidin-3-yl)phenoxy)ethoxy)pyridin-3-yl)azetidine-1-carbonyl)-5-oxooctahydro-1H-pyrrolo[1,2-a]azepin-6-yl)carbamoyl)benzo[b]thiophen-5-yl)difluoromethyl)phosphoryl)bis(oxy))bis(ethane-2,1-diyl)) dibutanethioate], the IC50 was less than 100 nM.

On to `CCCC(=O)SCCOP(=O)(OCCSC(=O)CCC)C(F)(F)c1ccc2sc(C(=O)N[C@H]3CCC[C@H]4CC[C@@H](C(=O)N5CC(c6cnccc6OCCCCN[C@H](C(=O)N6C[C@H](O)C[C@H]6C(=O)NCc6ccc(-c7scnc7C)cc6)C(C)(C)C)C5)N4C3=O)cc2c1` [Compound 1, S,S((((difluoro(2-(((3S,6S,9aS)-3-(3-(4-(4-(((S)-1-((2S,4R)-4-hydroxy-2-((4-(4-methylthiazol-5-yl)benzyl)carbamoyl)pyrrolidin-1-yl)-3,3-dimethyl-1-oxobutan-2-yl)amino)butoxy)pyridin-3-yl)azetidine-1-carbonyl)-5-oxooctahydro-1H-pyrrolo[1,2-a]azepin-6-yl)carbamoyl)benzo[b]thiophen-5-yl)methyl)phosphoryl)bis(oxy))bis(ethane-2,1-diyl)) dibutanethioate], for which the IC50 lay in the range of 100 to 1000 nM.

Regarding `Cn1c(=O)n(C2CCC(=O)NC2=O)c2ccc(C#CCCC3CCN(c4ccncc4C4CN(C(=O)[C@@H]5CC[C@@H]6CCC[C@H](NC(=O)c7cc8cc(C(F)(F)P(=O)(OCCSC(=O)C(C)(C)C)OCCSC(=O)C(C)(C)C)ccc8s7)C(=O)N65)C4)CC3)cc21` (stereo partly drawn) [Compound 35, S,S(((((2-(((3S,6S,9aS)-3-(3-(4-(4-(4-(1-(2,6-dioxopiperidin-3-yl)-3-methyl-2-oxo-2,3-dihydro-1H-benzo[d]imidazol-5-yl)but-3-yn-1-yl)piperidin-1-yl)pyridin-3-yl)azetidine-1-carbonyl)-5-oxooctahydro-1H-pyrrolo[1,2-a]azepin-6-yl)carbamoyl)benzo[b]thiophen-5-yl)difluoromethyl)phosphoryl)bis(oxy))bis(ethane-2,1-diyl)) bis(2,2-dimethylpropanethioate)], the IC50 is less than 100 nM.

With `CCCC(=O)SCCOP(=O)(OCCSC(=O)CCC)C(F)(F)c1ccc2sc(C(=O)N[C@H]3CCC[C@H]4CC[C@@H](C(=O)N5CC(c6cnccc6N(C)CCOc6ccc(C7CCC(=O)NC7=O)cc6)C5)N4C3=O)cc2c1` (stereo partly drawn) [Compound 20, S,S(((((2-(((3S,6S,9aS)-3-(3-(4-((2-(4-(2,6-dioxopiperidin-3-yl)phenoxy)ethyl)(methyl)amino)pyridin-3-yl)azetidine-1-carbonyl)-5-oxooctahydro-1H-pyrrolo[1,2-a]azepin-6-yl)carbamoyl)benzo[b]thiophen-5-yl)difluoromethyl)phosphoryl)bis(oxy))bis(ethane-2,1-diyl)) dibutanethioate], the IC50 is less than 100 nM.

The same assay, now with this note: read-out: pSTAT3 IC50, compound 3 hrs, then 10 ng/mL IL-6 10 min, pY705-STAT3.
As for `CCCOC(=O)[C@H](C)NP(=O)(Oc1ccccc1)[C@H](F)c1ccc2sc(C(=O)N[C@H]3CCC[C@H]4CC[C@@H](C(=O)N5CC(c6cnccc6N6CCC(CCC#Cc7ccc8c(c7)n(C)c(=O)n8C7CCC(=O)NC7=O)CC6)C5)N4C3=O)cc2c1` (stereo partly drawn) [Compound 39, propyl (((1S)-(2-(((3S,6S,9aS)-3-(3-(4-(4-(4-(1-(2,6-dioxopiperidin-3-yl)-3-methyl-2-oxo-2,3-dihydro-1H-benzo[d]imidazol-5-yl)but-3-yn-1-yl)piperidin-1-yl)pyridin-3-yl)azetidine-1-carbonyl)-5-oxooctahydro-1H-pyrrolo[1,2-a]azepin-6-yl)carbamoyl)benzo[b]thiophen-5-yl)fluoromethyl)(phenoxy)phosphoryl)-L-alaninate], the IC50 was less than 100 nM.

As to `CCCC(=O)SCCOP(=O)(OCCSC(=O)CCC)C(F)(F)c1ccc2sc(C(=O)N[C@H]3CCC[C@H]4CC[C@@H](C(=O)N5CC(c6cnccc6N6CCC(C(=O)N[C@H](C(=O)N7C[C@H](O)C[C@H]7C(=O)NCc7ccc(-c8scnc8C)cc7)C(C)(C)C)CC6)C5)N4C3=O)cc2c1` [Compound 7, S,S((((difluoro(2-(((3S,6S,9aS)-3-(3-(4-(4-(((S)-1-((2S,4R)-4-hydroxy-2-((4-(4-methylthiazol-5-yl)benzyl)carbamoyl)pyrrolidin-1-yl)-3,3-dimethyl-1-oxobutan-2-yl)carbamoyl)piperidin-1-yl)pyridin-3-yl)azetidine-1-carbonyl)-5-oxooctahydro-1H-pyrrolo[1,2-a]azepin-6-yl)carbamoyl)benzo[b]thiophen-5-yl)methyl)phosphoryl)bis(oxy))bis(ethane-2,1-diyl)) dibutanethioate], the IC50 lay in the range of 100 to 1000 nM.

Turning to `CCCC(=O)SCCOP(=O)(OCCSC(=O)CCC)C(F)(F)c1ccc2sc(C(=O)N[C@H]3CCC[C@H]4CC[C@@H](C(=O)N5CC(c6cnccc6N6CCN(C(=O)COc7ccc(C8CCC(=O)NC8=O)cc7)CC6)C5)N4C3=O)cc2c1` (stereo partly drawn) [Compound 29, S,S(((((2-(((3S,6S,9aS)-3-(3-(4-(4-(2-(4-(2,6-dioxopiperidin-3-yl)phenoxy)acetyl)piperazin-1-yl)pyridin-3-yl)azetidine-1-carbonyl)-5-oxooctahydro-1H-pyrrolo[1,2-a]azepin-6-yl)carbamoyl)benzo[b]thiophen-5-yl)difluoromethyl)phosphoryl)bis(oxy))bis(ethane-2,1-diyl)) dibutanethioate], the IC50 was less than 100 nM.

With `CCCOC(=O)[C@H](C)NP(=O)(Oc1ccccc1)[C@@H](F)c1ccc2sc(C(=O)N[C@H]3CCC[C@H]4CC[C@@H](C(=O)N5CC(c6cnccc6N6CCC(CCC#Cc7ccc8c(c7)n(C)c(=O)n8C7CCC(=O)NC7=O)CC6)C5)N4C3=O)cc2c1` (stereo partly drawn) [Compound 38, propyl (((1R)-(2-(((3S,6S,9aS)-3-(3-(4-(4-(4-(1-(2,6-dioxopiperidin-3-yl)-3-methyl-2-oxo-2,3-dihydro-1H-benzo[d]imidazol-5-yl)but-3-yn-1-yl)piperidin-1-yl)pyridin-3-yl)azetidine-1-carbonyl)-5-oxooctahydro-1H-pyrrolo[1,2-a]azepin-6-yl)carbamoyl)benzo[b]thiophen-5-yl)fluoromethyl)(phenoxy)phosphoryl)-L-alaninate], the IC50 was less than 100 nM.

These data come from patent US20260306642A1, “STAT DEGRADERS AND USES THEREOF” (Recludix Pharma, Inc., priority 2023, published 2026).
